pEC50: −log10 of the molar value.
Molecular target: T1, ERR1 (also known as ERR-α or ERR-1) (Homo sapiens, UniProt P11474)
T1 sequence (P11474 193-421 limits assumed): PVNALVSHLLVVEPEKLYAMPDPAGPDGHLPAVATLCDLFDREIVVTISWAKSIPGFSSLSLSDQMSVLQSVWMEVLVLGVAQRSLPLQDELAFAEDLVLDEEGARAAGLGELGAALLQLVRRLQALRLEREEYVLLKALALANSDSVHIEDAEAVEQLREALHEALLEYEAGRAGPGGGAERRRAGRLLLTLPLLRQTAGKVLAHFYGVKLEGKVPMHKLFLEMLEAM
Experiment: TR-FRET assay (disruption of co-activator peptide binding)
Type: biochemical
Details: 6His-tagged ERR1 LBD, GST-hSRC2 co-activator polypeptide; average of 3 independent experiments
How it was run: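 Compound-induced loss of co-activator recruitment, read by time-resolved FRET (excitation 340 nm; 615 and 665 nm emission) after 4-18 h at 25 °C. Reagents: 6 nM ERR1LBD, 6 nM GST-SRC-2, 30 nM Eu cryptate, 7.5 nM XL665, pH 8 Tris buffer. Values: hyperbolic fits averaged over 3 independent runs.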

SMILES | pEC50
O=C1N=C(N2CCCC(NCCO)C2)S/C1=C\c1ccc2c(cnn2Cc2ccc(C(F)(F)F)cc2C(F)(F)F)c1 (stereo not drawn) [Example 267, 5-({1-[2,4-Bis(trifluoromethyl)benzyl]-1H-indazol-5-yl}methylidene)-2-{3-[(2-hydroxyethyl)amino]piperidin-1-yl}-1,3-thiazol-4(5H)-one] | 7.37
CS(=O)(=O)NC1CCN(C2=NC(=O)/C(=C/c3ccc4c(cnn4Cc4ccc(C(F)(F)F)cc4C(F)(F)F)c3)S2)CC1 [Example 120, N-(1-{5-[1-(2,4-Bis-trifluoromethyl-benzyl)-1H-indazol-5-ylmethylene]-4-oxo-4,5-dihydro-thiazol-2-yl}-piperidin-4-yl)-methanesulfonamide] | 7.57
CC(C)(C)OC[C@@H]1CN(C2=NC(=O)/C(=C/c3ccc4c(cnn4Cc4ccc(C(F)(F)F)cc4C(F)(F)F)c3)S2)CCO1 [Example 143, 5-({1-[2,4-Bis(trifluoromethyl)benzyl]-1H-indazol-5-yl}methylidene)-2-[2(S)-(tert-butoxymethyl)morpholin-4-yl]-1,3-thiazol-4(5H)-one] | 7.25
O=C1N=C(N2CCN[C@@H](CO)C2)S/C1=C\c1ccc2c(cnn2Cc2ccc(O)cc2C(F)(F)F)c1 [Example 250, 2-[(3R)-3-(Hydroxymethyl)piperazin-1-yl]-5-({1-[4-hydroxy-2-(trifluoromethyl)benzyl]-1H-indazol-5-yl}methylidene)-1,3-thiazol-4(5H)-one] | 6.72
O=C1N=C(N2CCNC[C@@H]2CO)S/C1=C\c1ccc2c(cnn2Cc2ccc(C(F)(F)F)cc2C(F)(F)F)c1 [Example 104, 5-[1-(2,4-Bis-trifluoromethyl-benzyl)-1H-indazol-5-ylmethylene]-2-(2-hydroxymethyl-piperazin-1-yl)-thiazol-4-one] | 7.74
CCOC(=O)N1CCCN(C2=NC(=O)/C(=C/c3ccc4c(cnn4Cc4ccc(Cl)cc4C(F)(F)F)c3)S2)CC1 [Example 128, 4-{5-[1-(4-Chloro-2-trifluoromethyl-benzyl)-1H-indazol-5-ylmethylene]-4-oxo-4,5-dihydro-thiazol-2-yl}-[1,4]diazepane-1-carboxylic acid ethyl ester] | 7.49
CN1CCN(C2=NC(=O)/C(=C/c3ccc4c(cnn4Cc4ccc(C(C)(C)O)cc4C(F)(F)F)c3)S2)CC1 [Example 242, 5-({1-[4-(1-Hydroxy-1-methylethyl)-2-(trifluoromethyl)benzyl]-1H-indazol-5-yl}methylidene)-2-(4-methylpiperazin-1-yl)-1,3-thiazol-4(5H)-one] | 7.52
CN1CCN(C2=NC(=O)/C(=C/c3ccc4c(cnn4Cc4ccc(C(N)=O)cc4C(F)(F)F)c3)S2)CC1 [Compound 20, 4-{5-[2-(4-Methyl-piperazin-1-yl)-4-oxo-4H-thiazol-5-ylidenemethyl]-indazol-1-ylmethyl}-3-trifluoromethyl-benzamide] | 6.52
NC1CN(C2=NC(=O)/C(=C/c3ccc4c(cnn4Cc4ccc(Cl)cc4C4CC4)c3)S2)C1 [Example 92, 2-(3-Amino-azetidin-1-yl)-5-[1-(4-chloro-2-cyclopropyl-benzyl)-1H-indazol-5-ylmethylene]-thiazol-4-one] | 7.31
CC(C)(C)N1CCN(C2=NC(=O)/C(=C/c3ccc4c(cnn4Cc4ccc(Cl)cc4C(F)(F)F)c3)S2)CC1 [Example 84, 2-(4-tert-Butyl-piperazin-1-yl)-5-[1-(4-chloro-2-trifluoromethyl-benzyl)-1H-indazol-5-ylmethylene]-thiazol-4-one] | 7.41
O=C1N=C(N2CCC3(CC2)NCNC3=O)S/C1=C\c1ccc2c(cnn2Cc2ccc(Cl)cc2C(F)(F)F)c1 [Example 167, 8-{5-[1-(4-Chloro-2-trifluoromethyl-benzyl)-1H-indazol-5-ylmethylene]-4-oxo-4,5-dihydro-thiazol-2-yl}-1,3,8-triaza-spiro[4.5]decan-4-one] | 7.80
CN1C2CCC1CN(C1=NC(=O)/C(=C/c3ccc4c(cnn4Cc4ccc(Cl)cc4C(F)(F)F)c3)S1)C2 [Example 101, 5-[1-(4-Chloro-2-trifluoromethyl-benzyl)-1H-indazol-5-ylmethylene]-2-(8-methyl-3,8-diaza-bicyclo[3.2.1]oct-3-yl)-thiazol-4-one] | 7.67
CC(=O)NC1CCN(C2=NC(=O)/C(=C/c3ccc4c(cnn4Cc4ccc(C(F)(F)F)cc4C(F)(F)F)c3)S2)CC1 [Example 108, N-(1-{5-[1-(2,4-Bis-trifluoromethyl-benzyl)-1H-indazol-5-ylmethylene]-4-oxo-4,5-dihydro-thiazol-2-yl}-piperidin-4-yl)-acetamide] | 7.52
COC1CCN(C2=NC(=O)/C(=C/c3ccc4c(cnn4Cc4ccc(Cl)cc4C(F)(F)F)c3)S2)CC1 [Example 112, 5-[1-(4-Chloro-2-trifluoromethyl-benzyl)-1H-indazol-5-ylmethylene]-2-(4-methoxy-piperidin-1-yl)-thiazol-4-one] | 7.54
C[C@@H]1CN(C2=NC(=O)/C(=C/c3ccc4c(cnn4Cc4ccc(C(C)(C)O)cc4Cl)c3)S2)C[C@H](C)N1 [Example 233, 5-({1-[2-Chloro-4-(1-hydroxy-1-methylethyl)benzyl]-1H-indazol-5-yl}methylidene)-2-(3,5-(cis)-dimethylpiperazin-1-yl)-1,3-thiazol-4(5H)-one] | 6.90

Now from value to compound:

pEC50 | SMILES
7.85 | O=C1N=C(N2CC3CC2CN3)S/C1=C\c1ccc2c(cnn2Cc2ccc(Cl)cc2C(F)(F)F)c1 [Example 100, 5-[1-(4-Chloro-2-trifluoromethyl-benzyl)-1H-indazol-5-ylmethylene]-2-(2S,5S-diaza-bicyclo[2.2.1]hept-2-yl)-thiazol-4-one]
8.22 | O=C1N=C(N2CCO[C@@H](CO)C2)S/C1=C\c1ccc2c(cnn2Cc2ccc(Br)cc2C(F)(F)F)c1 [Example 237]
7.96 | Cc1nnc(C)n1C1CCN(C2=NC(=O)/C(=C/c3ccc4c(cnn4Cc4ccc(Cl)cc4C(F)(F)F)c3)S2)CC1 [Example 147, 5-[1-(4-Chloro-2-trifluoromethyl-benzyl)-1H-indazol-5-ylmethylene]-2-[4-(3,5-dimethyl-[1,2,4]triazol-4-yl)-piperidin-1-yl]-thiazol-4-one]
8.12 | CNC(=O)CN1CCN(C2=NC(=O)/C(=C/c3ccc4c(cnn4Cc4ccc(Cl)cc4C(F)(F)F)c3)S2)CC1 [Example 82, 2-(4-{5-[1-(4-Chloro-2-trifluoromethyl-benzyl)-1H-indazol-5-ylmethylene]-4-oxo-4,5-dihydro-thiazol-2-yl}piperazin-1-yl)-N-methyl-acetamide]
8.52 | CC(=O)OC[C@@H]1CN(C2=NC(=O)/C(=C/c3ccc4c(cnn4Cc4ccc(C(F)(F)F)cc4C(F)(F)F)c3)S2)CCO1 [Example 280, {(2S)-4-[5-({1-[2,4-Bis(trifluoromethyl)benzyl]-1H-indazol-5-yl}methylidene)-4-oxo-4,5-dihydro-1,3-thiazol-2-yl]morpholin-2-yl}methyl acetate]
7.85 | O=C1N=C(N2CCS(=O)(=O)CC2)S/C1=C\c1ccc2c(cnn2Cc2ccc(Cl)cc2C(F)(F)F)c1 [Example 146, 5-[1-(4-Chloro-2-trifluoromethyl-benzyl)-1H-indazol-5-ylmethylene]-2-(1,1-dioxidothiomorpholin-4-yl)-thiazol-4-one]
7.80 | Cc1nn(Cc2ccc(Cl)cc2C(F)(F)F)c2ccc(/C=C3\SC(N4CCO[C@H](CO)C4)=NC3=O)cc12 [Example 181, 5-[1-(4-Chloro-2-trifluoromethyl-benzyl)-3-methyl-1H-indazol-5-ylmethylene]-2-(2-(S)-hydroxymethyl-morpholin-4-yl)-thiazol-4-one]
8.30 | CN1CCN(C2=NC(=O)/C(=C/c3ccc4c(cnn4Cc4ccc(C(F)(F)F)cc4C(F)(F)F)c3)S2)[C@@H](CO)C1 [Example 253, 5-({1-[2,4-Bis(trifluoromethyl)benzyl]-1H-indazol-5-yl}methylidene)-2-[(2R)-2-(hydroxymethyl)-4-methylpiperazin-1-yl]-1,3-thiazol-4(5H)-one]
8.22 | NC(=O)C1CN(C2=NC(=O)/C(=C/c3ccc4c(cnn4Cc4ccc(Cl)cc4C(F)(F)F)c3)S2)CCN1 (stereo not drawn) [Example 273, 4-[5-({1-[4-Chloro-2-(trifluoromethyl)benzyl]-1H-indazol-5-yl}methylidene)-4-oxo-4,5-dihydro-1,3-thiazol-2-yl]piperazine-2-carboxamide]
8.09 | O=C1N=C(N2CCNC[C@@H]2C(=O)O)S/C1=C\c1ccc2c(cnn2Cc2ccc(C(F)(F)F)cc2C(F)(F)F)c1 [Example 47, 1-{5-[1-(2,4-Bis-trifluoromethyl-benzyl)-1H-indazol-5-ylmethylene]-4-oxo-4,5-dihydro-thiazol-2-yl}piperazine-2-(R)-carboxylic acid]
7.92 | O=C1N=C(N2CCC(O)(Cn3ccnc3)CC2)S/C1=C\c1ccc2c(cnn2Cc2ccc(Cl)cc2C(F)(F)F)c1 [Example 164, 5-[1-(4-Chloro-2-trifluoromethyl-benzyl)-1H-indazol-5-ylmethylene]-2-(4-hydroxy-4-imidazol-1-ylmethyl-piperidin-1-yl)-thiazol-4-one]
8.40 | C[C@@H]1CN(C2=NC(=O)/C(=C/c3ccc4c(cnn4Cc4ccc(Cl)cc4C(F)(F)F)c3)S2)C[C@H](C)N1 [Example 241, 5-({1-[4-Chloro-2-(trifluoromethyl)benzyl]-1H-indazol-5-yl}methylidene)-2-((3R,5S)-3,5-dimethylpiperazin-1-yl)-1,3-thiazol-4(5H)-one]

Reference: patent US8399681B2, “Substituted aminothiazolone indazoles as estrogen related receptor-alpha modulators” (Janssen Pharmaceutica NV, priority 2009, dated 2013)
